The text below walks through data of article PMC12067315 (European journal of medicinal chemistry, 2022).

The target of one test is T1, α2A-AR (Homo sapiens, UniProt P08913).
T1 sequence (P08913 1-465): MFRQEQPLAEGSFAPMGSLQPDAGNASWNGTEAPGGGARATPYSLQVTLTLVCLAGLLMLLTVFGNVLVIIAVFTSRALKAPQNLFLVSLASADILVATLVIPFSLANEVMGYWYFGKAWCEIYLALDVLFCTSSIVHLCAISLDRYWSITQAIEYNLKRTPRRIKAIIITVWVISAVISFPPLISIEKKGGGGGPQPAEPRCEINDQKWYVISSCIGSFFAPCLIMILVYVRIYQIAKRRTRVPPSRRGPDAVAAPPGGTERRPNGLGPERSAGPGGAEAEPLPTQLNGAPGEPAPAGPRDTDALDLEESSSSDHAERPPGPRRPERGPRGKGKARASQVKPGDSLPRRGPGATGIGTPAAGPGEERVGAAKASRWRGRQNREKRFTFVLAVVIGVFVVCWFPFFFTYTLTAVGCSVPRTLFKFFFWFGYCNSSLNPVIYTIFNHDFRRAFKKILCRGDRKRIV
The class given is binding.

A further test deals with T2, α2C-AR (Homo sapiens, UniProt P18825).
T2 sequence (P18825 1-462): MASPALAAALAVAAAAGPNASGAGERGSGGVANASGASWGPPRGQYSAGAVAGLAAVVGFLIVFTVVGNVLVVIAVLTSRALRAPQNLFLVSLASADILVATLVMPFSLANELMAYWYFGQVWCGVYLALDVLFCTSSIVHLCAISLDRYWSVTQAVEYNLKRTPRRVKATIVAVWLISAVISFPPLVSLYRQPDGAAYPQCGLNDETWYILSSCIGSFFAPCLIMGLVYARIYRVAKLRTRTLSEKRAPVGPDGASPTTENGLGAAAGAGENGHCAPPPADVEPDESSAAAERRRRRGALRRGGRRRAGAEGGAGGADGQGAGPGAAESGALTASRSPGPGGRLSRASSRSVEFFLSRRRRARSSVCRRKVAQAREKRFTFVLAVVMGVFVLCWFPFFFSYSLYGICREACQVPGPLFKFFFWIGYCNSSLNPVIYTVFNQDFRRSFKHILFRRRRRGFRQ
In kind it is binding. Conditions: for Subtype Selectivity (α2A/α2C): ratio between Ki for α2A vs. α2C.

Test [1] deals with α2A. Conditions: read-out: α2A (nM), literature Kb; literature Kb values; cited from earlier work.
The subject of test [2] is α2C. Conditions: read-out: α2C (nM), literature Kb; literature Kb values; cited from earlier work.
The target of test [3] is α2A. Conditions: read-out: α2A (nM), literature Ki; literature Ki values; cited from earlier work.
Test [4] deals with α2C. Conditions: read-out: α2C (nM), literature Ki; literature Ki values; cited from earlier work.
Test [5] has as its target α2A. Conditions: read-out: α2A (nM), literature Kd; literature Kd values; cited from earlier work.
The target of test [6] is α2C. Conditions: read-out: α2C (nM), literature Kd; literature Kd values; cited from earlier work.

SMILES strings stand for the structures. Like-named read-outs stand apart in the source and are kept apart here.

The Ki is a measure of affinity in units of concentration, obtained from inhibition or displacement. `COCc1scnc1N1CCN(C[C@H]2COc3ccccc3O2)CC1` [Compound 1, (S)-4-(4-((2,3-dihydrobenzo[b][1,4]dioxin-2-yl)methyl)piperazin-1-yl)-5-(methoxymethyl)thiazole]: the figures for the Ki at α2A-AR and at α2C-AR were 1.06 ± 0.52 nM and 0.25 ± 0.01 nM, respectively. The “Subtype Selectivity (α2A/α2C)” value at α2C-AR is on record as 4.24. Moreover, the Kb is 88 nM in the test on α2A [1] and less than 0.1 nM in the test with α2C [2].

With `COCc1c(C)nn(C)c1N1CCN(C[C@H]2COc3ccccc3O2)CC1` [Compound 2, (S)-1-((2,3-dihydrobenzo[b][1,4]dioxin-2-yl)methyl)-4-(4-(methoxymethyl)-1,3-dimethyl-1H-pyrazol-5-yl)-piperazine], the Ki at α2A-AR was determined as 12.3 ± 1.2 nM; on α2C-AR it was 0.74 ± 0.1 nM. Also, on α2C-AR, the “Subtype Selectivity (α2A/α2C)” value was found to be 16.6. Moreover, the results for the Kb in the test on α2A [1] and in the test on α2C [2] were 306 nM and 1.62 nM, respectively.

Consider `COc1ccccc1C1=CC(=O)N([C@H]2CCCN(C[C@H]3COc4ccccc4O3)C2)C1` [Compound 3, 1-((S)-1-(((S)-2,3-dihydrobenzo[b][1,4]dioxin-2-yl)methyl)piperidin-3-yl)-4-(2-methoxyphenyl)-1,5-dihydro-2H-pyrrol-2-one], for which the Ki at α2A-AR came to 458 ± 26 nM. On α2C-AR, the “Subtype Selectivity (α2A/α2C)” value was 751,000. The Kb was greater than 449 nM with α2A [1] and less than 0.001 nM in the test on α2C [2].

Regarding `COc1cccc(-n2nc(C)cc2N2CCN(C[C@H]3COc4ccccc4O3)CC2)n1` [Compound 4, (S)-1-((2,3-dihydrobenzo[b][1,4]dioxin-2-yl)methyl)-4-(1-(6-methoxypyridin-2-yl)-3-methyl-1H-pyrazol-5-yl)piperazine], the results for the inhibition constant (Ki) on α2A-AR and on α2C-AR were 2.77 ± 0.58 nM and 0.4 ± 0.07 nM, respectively. The “Subtype Selectivity (α2A/α2C)” value at α2C-AR amounted to 6.93. Further, the Kb was 82 nM in the test with α2A [1] and 0.29 nM with α2C [2].

Take `COCc1cccnc1N1CCN(C[C@H]2COc3ccccc3O2)CC1` [ORM-13070, (S)-1-((2,3-dihydrobenzo[b][1,4]dioxin-2-yl)methyl)-4-(3-(methoxymethyl)pyridin-2-yl)piperazine, reference compound]: the Ki on α2A-AR is 2.8 ± 0.2 nM; on α2C-AR it was 0.25 ± 0.09 nM; at α2A [3], 109 nM; at α2C [4] it was 3.8 nM. Further, the “Subtype Selectivity (α2A/α2C)” value on α2C-AR amounted to 11.2.

As usually defined, the Kd is the concentration at which binding is half-saturated. As to `CCS(=O)(=O)N1CCC[C@@H]2CN3CCc4cc(OC)ccc4[C@@H]3C[C@@H]21` [RS79948, reference compound], the Ki on α2A-AR (read-out: α2A (Ki), HEK293 membranes, 1 nM [3H]RX821002, Ki ± standard deviation) was determined as 0.16 ± 0.12 nM; on α2C-AR (read-out: α2C (Ki), HEK293 membranes, 1 nM [3H]RX821002, Ki ± standard deviation) it was 0.29 ± 0.08 nM. At α2C-AR, the “Subtype Selectivity (α2A/α2C)” value is given as 0.55. The Kd on α2A [5] is 0.6 nM; on α2C [6] it was 0.77 nM.
